Results published in PubChem BioAssay AID1919010 (Molecular Pharmacology Branch, DTP, NCI, 2023).
Where “and” joins values, the source holds several entries; their conditions need not be identical. Identical values can stand only once.

Tested on: Hs578T complex spheroid growth, percent test/control
Experiment: Anticancer human tumor Hs578T cell line growth inhibition [AhR];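 further: luminescent viability signal as a proxy for spheroid growth; spheroids exposed to agents for one week after three days of growth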
Conditions: for viability, T/C: stronger effect = lower value
From the text: Multicellular complex tumor spheroid response to aryl hydrocarbon receptor antagonists in combination with a variety of drugs and investigational agents in selected tumor cell lines
The current study was undertaken to assess response to aryl hydrocarbon receptor antagonists in combination with standard-of-care drugs and investigational agents in solid tumor complex spheroid models. Complex spheroids include a stromal component modeled by human endothelial cells (HUVEC) and fibroblasts modeled by human mesenchymal stem cells (MSCs). The concentration ranges selected for each drug and investigational agent were based upon clinically achievable concentrations if the clinical Cmax of the agent was known.
Compounds. The drugs and investigational agents: BAY 2416964 (NSC825713), GNF351 (NSC835774), CH-223191 (NSC835775), CPI-455 (NSC825282), aza-TdCyd (NSC777586), decitabine (NSC127716), belinostat (NSC758774), entinostat (NSC756642), pevonedistat (NSC761192), tazemetostat (NSC777109), talazoparib (NSC765396), olaparib (NSC753686), selinexor (NSC780203), nedisertib (M3814, NSC802822), bortezomib (NSC756655), venetoclax (NSC766270), doxorubicin (NSC123127), elimusertib (BAY189344, NSC800525), ceralasertib (AZD6738, NSC777638), TAK-243 (NSC785004), alisertib (NSC759677), etoposide (NSC141540), topotecan (NSC609699), eribulin (NSC707389), gemcitabine (NSC613327), carboplatin (NSC241240), cisplatin (NSC119875), and SN-38 (NSC673596) were obtained from the National Cancer Institute (NCI) Developmental Therapeutics Program Chemical Repository (32). The FDA-approved anticancer drug set is available from the Developmental Therapeutics Program at https://dtp.cancer.gov/organization/dscb/obtaining/available plates.htm. […] The stock solutions were prepared in dimethyl sulfoxide (DMSO, Sigma-Aldrich, St. Louis, MO, cat. D2650), except for the platinum compounds which were prepared in saline (Quality Biological, Gaithersburg, MD, cat. 114-055-101), at 800-fold the tested concentration and stored at -70 degrees C prior to their use. All drugs and investigational agents were tested over a range starting from a high concentration at or near the clinical Cmax and decreasing in half-log increments. If the clinical Cmax for an agent had not been determined, the highest concentration tested was 10 microM (Table 1).
Cell Culture. All cells were maintained in an incubator at 37 degrees C and 5% CO2 with 95% humidity. The PDC lines were cultured according to standard operating procedures established by the NCI PDMR (https://pdmr.cancer.gov). Briefly, all PDCs were thawed and cultured in Matrigel-coated flasks prepared with a working solution of 1X Ham's F-12 nutrient mix, without supplementation (Invitrogen, Waltham, MA, cat. 11765054), 100 U/mL penicillin-streptomycin (Invitrogen, cat. 15140122), and 2.5% Matrigel (Corning Inc., Corning, NY, cat. 354248) for the first three passages. All PDCs were cultured in complete DMEM/F-12 media containing advanced DMEM/F-12 (Invitrogen, cat. 12634028), 4.9% defined fetal bovine serum, heat inactivated (HyClone Laboratories Inc., Logan, UT, cat. SH30070.03HI), 389 ng/mL hydrocortisone (Sigma-Aldrich, cat. H4001), 9.7 ng/mL human EGF recombinant protein (Invitrogen, cat. PHG0313), 23.4 microg/mL adenine (Sigma-Aldrich, cat. A2786), 97.3 U/mL penicillin-streptomycin (Invitrogen, cat. 15140122), 1.9 mM L-glutamine (Invitrogen, cat. 25030081), and 9.7 microM Y-27632 dihydrochloride (Tocris Bioscience, Bristol, United Kingdom, cat. 1254). The PDCs were cultured in complete DMEM/F12 media without 10 microM Y-27632 dihydrochloride for at least two passages prior to the screen. The established cell lines NCI-H1341 and […] were cultured in DMEM/F-12, HEPES (Invitrogen, cat. 11330032), 5% defined fetal bovine serum (HyClone Laboratories Inc., cat. SH30070.03), ITS premix universal culture supplement [insulin (5 microg/mL), transferrin (5 microg/mL), and selenious acid (5 ng/mL)] […]

[1] = curve of first compound, second compound 0.1 µM
[2] = curve of first compound, second compound 0.316 µM
[3] = curve of first compound, second compound 1 µM
[4] = curve of first compound, second compound 3.16 µM
[5] = curve of first compound, second compound 10 µM

Q: What does the source list for CC[C@@]1(O)C(=O)OCc2c1cc1n(c2=O)Cc2cc3c(CN(C)C)c(O)ccc3nc2-1?
A: viability, T/C (compound 0.000316 µM): 94.7% and 97.6% and 107%; viability, T/C (compound 0.001 µM): 106% and 98.2% and 103%; viability, T/C (compound 0.00316 µM): 105% and 90.3% and 95.3%; viability, T/C (compound 0.01 µM): 96.5% and 72.5% and 96.3%; viability, T/C (compound 0.0316 µM): 76.8% and 64.2% and 77.9%; viability, T/C (compound 0.1 µM): 69.3% and 71.8% and 68.2%; IC50 (curve of compound): > 100 nM

Q: What does the source list for CCc1c2c(nc3ccc(O)cc13)-c1cc3c(c(=O)n1C2)COC(=O)[C@]3(O)CC + Cc1ccccc1N=Nc1ccc(NC(=O)c2ccnn2C)c(C)c1?
A: IC50 [1]: 84.6 nM; IC50 [2]: 130 nM; IC50 [3]: 68.7 nM; IC50 [4]: 39.1 nM; IC50 [5]: 8.73 nM; viability, T/C (second compound 0.1 µM, first compound 0.000949 µM): 77.4%; viability, T/C (second compound 0.1 µM, first compound 0.003 µM): 76.4%; viability, T/C (second compound 0.1 µM, first compound 0.00949 µM): 73.1%; viability, T/C (second compound 0.1 µM, first compound 0.03 µM): 57.9%; viability, T/C (second compound 0.1 µM, first compound 0.0949 µM): 50.8%; viability, T/C (second compound 0.1 µM, first compound 0.3 µM): 31.5%; viability, T/C (second compound 0.316 µM, first compound 0.000949 µM): 91%; viability, T/C (second compound 0.316 µM, first compound 0.003 µM): 78.4%; viability, T/C (second compound 0.316 µM, first compound 0.00949 µM): 72.1%; viability, T/C (second compound 0.316 µM, first compound 0.03 µM): 65.4%; viability, T/C (second compound 0.316 µM, first compound 0.0949 µM): 53%; viability, T/C (second compound 0.316 µM, first compound 0.3 µM): 41.5%; viability, T/C (second compound 1 µM, first compound 0.000949 µM): 72.8%; viability, T/C (second compound 1 µM, first compound 0.003 µM): 69.4%; viability, T/C (second compound 1 µM, first compound 0.00949 µM): 69.1%; viability, T/C (second compound 1 µM, first compound 0.03 µM): 60.9%; viability, T/C (second compound 1 µM, first compound 0.0949 µM): 45.7%; viability, T/C (second compound 1 µM, first compound 0.3 µM): 36.7%; viability, T/C (second compound 3.16 µM, first compound 0.000949 µM): 69.1%; viability, T/C (second compound 3.16 µM, first compound 0.003 µM): 73.8%; viability, T/C (second compound 3.16 µM, first compound 0.00949 µM): 62.5%; viability, T/C (second compound 3.16 µM, first compound 0.03 µM): 52%; viability, T/C (second compound 3.16 µM, first compound 0.0949 µM): 41.8%; viability, T/C (second compound 3.16 µM, first compound 0.3 µM): 31.9%; viability, T/C (second compound 10 µM, first compound 0.000949 µM): 60.4%; viability, T/C (second compound 10 µM, first compound 0.003 µM): 51.1%; viability, T/C (second compound 10 µM, first compound 0.00949 µM): 50.7%; viability, T/C (second compound 10 µM, first compound 0.03 µM): 46.3%; viability, T/C (second compound 10 µM, first compound 0.0949 µM): 34.7%; viability, T/C (second compound 10 µM, first compound 0.3 µM): 30.3%

Q: How did the IC50 [1] turn out when Nc1ccccc1NC(=O)c1ccc(CNC(=O)OCc2cccnc2)cc1 + CC(CO)NC(=O)c1cc(-c2ccc(Cl)cc2)nn(-c2cnn(C)c2)c1=O was run?
A: The IC50 was 1610 nM.

Q: And the IC50 [2]?
A: The IC50 was 1700 nM.

Q: And the IC50 [3]?
A: The IC50 was 1660 nM.

Q: And the IC50 [4]?
A: Its IC50 is 1720 nM.

Q: What about the IC50 [5] of the same compound?
A: Its IC50 is 1260 nM.

Q: And the viability, T/C (second compound 0.1 µM, first compound 0.0316 µM)?
A: Its viability, T/C is 124%.

Q: And the viability, T/C (second compound 0.1 µM, first compound 0.1 µM)?
A: The viability, T/C was 122%.

Q: What about the viability, T/C (second compound 0.1 µM, first compound 0.316 µM) of the same compound?
A: The viability, T/C was 108%.

Q: What about the viability, T/C (second compound 0.1 µM, first compound 1 µM) of the same compound?
A: Its viability, T/C is 68.3%.

Q: And the viability, T/C (second compound 0.1 µM, first compound 3.16 µM)?
A: The viability, T/C was 24%.

Q: What about the viability, T/C (second compound 0.1 µM, first compound 10 µM) of the same compound?
A: Its viability, T/C is 1.8%.

Q: And the viability, T/C (second compound 0.316 µM, first compound 0.0316 µM)?
A: Its viability, T/C is 111%.

Q: And the viability, T/C (second compound 0.316 µM, first compound 0.1 µM)?
A: Its viability, T/C is 118%.

Q: What about the viability, T/C (second compound 0.316 µM, first compound 0.316 µM) of the same compound?
A: The viability, T/C was 111%.

Q: What about the viability, T/C (second compound 0.316 µM, first compound 1 µM) of the same compound?
A: The viability, T/C was 65.8%.

Q: And the viability, T/C (second compound 0.316 µM, first compound 3.16 µM)?
A: The viability, T/C was 30%.

Q: What about the viability, T/C (second compound 0.316 µM, first compound 10 µM) of the same compound?
A: The viability, T/C was 1.83%.

Q: And the viability, T/C (second compound 1 µM, first compound 0.0316 µM)?
A: Its viability, T/C is 121%.

Q: And the viability, T/C (second compound 1 µM, first compound 0.1 µM)?
A: Its viability, T/C is 118%.

Q: And the viability, T/C (second compound 1 µM, first compound 0.316 µM)?
A: Its viability, T/C is 112%.

Q: What about the viability, T/C (second compound 1 µM, first compound 1 µM) of the same compound?
A: The viability, T/C was 64.3%.

Q: What about the viability, T/C (second compound 1 µM, first compound 3.16 µM) of the same compound?
A: Its viability, T/C is 29.6%.

Q: What about the viability, T/C (second compound 1 µM, first compound 10 µM) of the same compound?
A: The viability, T/C was 2.16%.

Q: And the viability, T/C (second compound 3.16 µM, first compound 0.0316 µM)?
A: Its viability, T/C is 115%.

Q: What about the viability, T/C (second compound 3.16 µM, first compound 0.1 µM) of the same compound?
A: Its viability, T/C is 118%.

Q: And the viability, T/C (second compound 3.16 µM, first compound 0.316 µM)?
A: Its viability, T/C is 109%.

Q: What about the viability, T/C (second compound 3.16 µM, first compound 1 µM) of the same compound?
A: Its viability, T/C is 70.9%.

Q: And the viability, T/C (second compound 3.16 µM, first compound 3.16 µM)?
A: Its viability, T/C is 25.9%.

Q: And the viability, T/C (second compound 3.16 µM, first compound 10 µM)?
A: Its viability, T/C is 2.04%.

Q: And the viability, T/C (second compound 10 µM, first compound 0.0316 µM)?
A: Its viability, T/C is 111%.

Q: What about the viability, T/C (second compound 10 µM, first compound 0.1 µM) of the same compound?
A: The viability, T/C was 106%.

Q: And the viability, T/C (second compound 10 µM, first compound 0.316 µM)?
A: Its viability, T/C is 97.2%.

Q: And the viability, T/C (second compound 10 µM, first compound 1 µM)?
A: The viability, T/C was 58.2%.

Q: And the viability, T/C (second compound 10 µM, first compound 3.16 µM)?
A: The viability, T/C was 16%.

Q: What about the viability, T/C (second compound 10 µM, first compound 10 µM) of the same compound?
A: Its viability, T/C is 0.84%.
